Test results published in patent US5834010A, “Triacetin as a penetration enhancer for transdermal delivery of a basic drug” (priority 1997, dated 1998).
Where two headings read alike, the source gives them in different places.

Key:
[1] = In vitro human cadaver skin flux of oxybutynin free base from adhesive matrix patches (modified Franz cells)
Method: In vitro human cadaver skin flux studies were conducted using modified Franz non-jacketed permeation cells. The temperature of the cells was maintained at 32° C. by placing the cells in a circulating water bath positioned over a stirring module. The epidermal membrane was separated from the human cadaver whole skin by the heat-separation method of Kligman & Christopher, 88 Arch. Dermatol. 702 (1963), hereby incorporated by reference, involving treating the full thickness skin at 60° C. for 60 seconds, after which time the stratum corneum and the epidermis (epidermal membrane) were gently peeled from the dermis.
For skin flux studies of matrix devices, the epidermal membrane was cut into rectangular strips, and the matrix device was cut into 0.96 cm^2 circular discs. The release liner was peeled from the disc, and the disc was laminated onto the stratum corneum surface of the epidermal membrane to form a skin-matrix laminate. The skin-matrix laminate was then loaded between the donor and receiver compartments of a diffusion cell with the epidermal side facing the receiver compartment. The laminate was clamped in place, and the receiver compartment was then filled with an appropriate receiving solution for a selected drug. The receiving solution was selected such that the drug was stable in the solution, the subsequent assay of the drug was not interfered with, and solubility of the drug was adequate to ensure sink conditions throughout the experiment. The diffusion cell was then placed in a circulating water bath calibrated to maintain the skin surface temperature at 32°±1° C. At predetermined sampling intervals, the entire contents of the receiver compartment were collected for drug quantitation, and the receiver compartment was filled with fresh receiving solution, taking care to eliminate any air bubbles at the skin/solution interface.
The cumulative amount of drug permeating through the epidermal membrane, Qt (μg/cm^2), at any time t was determined from the following formula: [formula] where Cn is the concentration (μg/ml) of the drug in the receiver sample for the corresponding sample time, V is the volume of fluid in the receiver chamber (~6.3 cm^3), and A is the diffusional area of the cell (0.64 cm^2). The slope of the best fit line to the plot of Qt vs. t gives the steady state flux (Jss, μg/cm^2 /hr); the intercept of this line on the time axis give the lag time (tL,h).
Matrix patches containing varying amounts of oxybutynin free base and penetration enhancers were prepared and tested as described above. The matrix systems consisted of 5 to 20% by weight of oxybutynin free base and 0 to 20% by weight of the enhancer contained in a medical grade acrylic copolymer adhesive.
The matrix formulations were prepared as follows. First, the solids content of the adhesive was determined by weighing a small amount of the adhesive solution in a preweighed aluminum dish. The solvent was evaporated by overnight drying in a convection oven maintained at 80° C. and the weight of the residue (dry adhesive) and percent solid adhesive content of the solution were determined. Once the solids content was determined, a known weight of the acrylic copolymer adhesive solution was weighed into a glass bottle. From the weight of the adhesive solution and the percent solid adhesive content, the amount of adhesive in the solution was calculated. Oxybutynin free base and enhancer were added to the bottle in proportions to yield the selected final composition. The bottle was then tightly capped, sealed with laboratory film, and rotated overnight until all ingredients had completely dissolved and the resultant solution was visually clear.
Approximately 8 ml of the solution was then dispensed on a silanized polyester release liner and cast with a 10 mil gap casting knife. The casting was then dried in a convection oven at 70° C. for 15 minutes to evaporate the solvent and to yield a dried film approximately 0.002 inch thick.

[2] = propylene glycol/linoleic acid enhancer system; cited from earlier work
[3] = In vitro human cadaver skin flux of oxybutynin free base from liquid reservoir gel formulations; type: in vitro ADME
Method: For skin flux studies of gel formulations (i.e., for liquid reservoir patch designs), the epidermal membrane was cut and placed between two halves of the permeation cell with the stratum corneum facing the donor compartment. The skin was allowed to hydrate at 32° C. overnight with 0.02% (w/v) sodium azide solution in the receiver compartment. The following morning, 75 μl of a gelled formulation was placed into a cavity created by placing a polytetrafluoroethylene washer over the stratum corneum surface. The cavity was then occluded by clamping an occlusive backing over the washer and gel. An appropriate receiving solution for a selected drug was placed in the receiver compartment in contact with the dermal side of the epidermis.
Liquid reservoir gel formulations containing oxybutynin free base and triacetin were tested as described above. Such liquid reservoir gel formulations were prepared in 10 ml quantities. Ethanol, water, glycerin, and triacetin were mixed in selected proportions in a capped vial. Then, 400 mg of oxybutynin free base was added to the vial, and the vial was capped and ultrasonicated to completely dissolve the drug. Next, 0.3 g of modified hydroxyethyl cellulose (NATROSOL PLUS 330CS, Aqualon, Wilmington, Del.) as a gelling agent was added to the mixture and the contents were mixed thoroughly and gently rotated overnight to completely dissolve the gelling agent.

[4] = plaster with glycol and surfactant, WO9309783-A1; cited from earlier work
[5] = Enhancement of transdermal penetration, general statement; type: in vitro ADME
From the text: As used herein, the terms "enhancement", "penetration enhancement" or "permeation enhancement" mean an increase in the permeability of a biological membrane (i.e. skin or mucosa) to a drug, so as to increase the rate at which the drug permeates through the membrane. "Permeation enhancer," "enhancer," "penetration enhancer," or similar term means a material that achieves such permeation enhancement, and an "effective amount" of an enhancer means an amount effective to enhance penetration through the skin or mucosa of a selected agent to a selected degree. The enhanced permeation as effected though the use of such enhancers can be observed, for example, by measuring the rate of diffusion of the drug through animal or human skin using a diffusion cell apparatus. Such a diffusion cell is described by Merritt et al., Diffusion Apparatus for Skin Penetration, 1 J. of Controlled Release 61 (1984), incorporated herein by reference.

[6] = isosorbide dinitrate, JP05148141-A; cited from earlier work
[7] = Allen, U.S. Pat. No. 4,895,727; cited from earlier work

CN1CCCC1=O [N-methyl pyrrolidone, reference compound]
exhibited the ability to increase transdermal skin flux of oxybutynin free base [1]: none of the well known penetration enhancers tested

CCCCCCCC/C=C\CCCCCCCC(=O)OCC(O)CO (centres unmarked) [glycerol monooleate, reference compound]
exhibited the ability to increase transdermal skin flux of oxybutynin free base ([1]; matrix system, TSR adhesive): none of the well known penetration enhancers tested

CCCCCCCCCCCCCC(=O)OC(C)C [isopropyl myristate, reference compound]
exhibited the ability to increase transdermal skin flux of oxybutynin free base ([1]; matrix system, TSR adhesive): none of the well known penetration enhancers tested

CCCCCCCCCCCCO [lauryl alcohol, reference compound]
exhibited the ability to increase transdermal skin flux of oxybutynin free base ([1]; matrix system, TSR adhesive): none of the well known penetration enhancers tested

CC(=O)OCC(COC(C)=O)OC(C)=O [triacetin, glyceryl triacetate]
flux of oxymorphone with increasing amounts of triacetin and decreasing linoleic acid [2]: decreasing flux
lag time for permeation of oxymorphone with increasing amounts of triacetin and decreasing linoleic acid [2]: increasing lag time
penetration enhancement with liquid reservoir patches [3]: no penetration enhancement of basic drugs (including oxybutynin) or other drugs has been observed
percutaneous absorption of piroxicam [4]: enhances percutaneous absorption of piroxicam
enhancing transdermal penetration of basic drugs ([5]; basic drugs, particularly pKa of about 8.0 or above, matrix patch): effective in enhancing transdermal penetration of basic drugs
enhancing transdermal penetration of neutral or acidic drugs ([5]; neutral or acidic drugs): not of neutral or acidic drugs
penetration enhancing effect of triacetin [6]: shown only in conjunction with a neutral, solvent-acting drug
antifungal activity [7]: has activity as an antifungal agent
effect on skin flux of oxybutynin free base [1]: significantly increases the skin flux of oxybutynin free base

sorbitan monooleate [reference compound]
exhibited the ability to increase transdermal skin flux of oxybutynin free base ([1]; matrix system, TSR adhesive): none of the well known penetration enhancers tested
